Measured values: ChEMBL document CHEMBL1201862, “PubChem BioAssay data set” (2004)
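Where inhibition never reached the appropriate level, the endpoint shown equals the highest concentration tested. Otherwise, values were interpolated linearly from a five-concentration, 48-hour dose response in 96-well plates. GI50 marks 50% less growth.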 Calls of active or inactive are those of the source. No stated cut-off is given here; in the data, active = GI50 up to about 1.1 µM and inactive = higher. Non-standard residues stand in square brackets, D forms with d. Residues, ends and D or L forms follow the SMILES beside them. ξ: configuration not given here. *: point of attachment. NMeF = CN[C@@H](Cc1ccccc1)C(=O)O; NMeN = CN[C@@H](CC(N)=O)C(=O)O; NMeV = CN[C@H](C(=O)O)C(C)C; ξNMeV = CNC(C(=O)O)C(C)C; Boc = CC(C)(C)OC(=O)*; ξNMeA = CNC(C)C(=O)O; ξV = CC(C)C(N)C(=O)O

Experiments:
Assay in all cases: DTP human tumour cell line panel, 48 h
SR = test system: SR
NCI/ADR-RES = test system: NCI/ADR-RES
RXF 393 = test system: RXF 393
CAKI-1 = test system: CAKI-1
UACC-257 = test system: UACC-257
BT-549 = test system: BT-549
NCI-H23 = test system: NCI-H23
MCF7 = test system: MCF7
T47D = test system: T47D
KM12 = test system: KM12
NCI-H460 = test system: NCI-H460
HCC 2998 = test system: HCC 2998
SN12C = test system: SN12C
ACHN = test system: ACHN
UACC-62 = test system: UACC-62
OVCAR-3 = test system: OVCAR-3
SK-MEL-28 = test system: SK-MEL-28
A498 = test system: A498
HCT-116 = test system: HCT-116
KM-20L2 = test system: KM-20L2

Measured: GI50

COC(=O)C(C)N(C)C(=O)[C@H](CC(N)=O)N(C)C(=O)[C@@H]1CCCN1C(=O)[C@H](C(C)C)N(C)C(=O)C(C(C)C)N(C)C(=O)[C@H](Cc1ccccc1)N(C)C(=O)C(NC(=O)OC(C)(C)C)C(C)C (stereo not given in full) (Boc-[ξV][NMeF][ξNMeV][NMeV]P[NMeN][ξNMeA]-OMe)
inactive: SR 5.15 µM | NCI/ADR-RES > 50 µM | RXF 393 12 µM | CAKI-1 > 50 µM | UACC-257 25.6 µM | BT-549 12.1 µM | NCI-H23 17.6 µM | MCF7 14.2 µM | T47D 19.5 µM | KM12 11.2 µM | NCI-H460 37.2 µM | HCC 2998 18.8 µM | SN12C 26 µM | ACHN > 50 µM | UACC-62 10.2 µM | OVCAR-3 12.5 µM | SK-MEL-28 18.2 µM | A498 44.4 µM | HCT-116 16.3 µM | KM-20L2 33 µM
